The values that follow come from US6812231B2, “Benzamidine derivative” (Ajinomoto Co., Inc., priority 1998, dated 2004).

In test [1] the target is T1, activated human blood coagulation factor X (Homo sapiens, UniProt P00742).
T1 construct: purchased Enzyme Research Co
Description: Determination of activity of inhibiting the activated blood-coagulation factor X (chromogenic substrate, initial rate). It is filed as biochemical. Particulars: tris hydrochloride buffer pH 8.4, room temperature, absorbance 405 nm; for IC50: read-out: Activity of inhibiting activated blood coagulation factor X (pIC50) (converted). How it is done: Determination of Activity of Inhibiting the Activated Blood-coagulation Factor X
130 μl of 100 mM tris hydrochloride buffer adjusted to pH 8.4 was added to 10 μl of an aqueous solution of a compound to be tested. Then 10 μl of a 0.5 unit/ml solution of activated human blood coagulation factor X (a product of Enzyme Research Co.) in tris hydrochloride of pH 8.4 was added to the resultant mixture. After the incubation at room temperature for 10 minutes, 50 μl of a solution of N-benzoyl-L-isoleucyl-L-glutamyl-glycyl-L-arginyl-P-nitroanilide hydrochloride (a product of Peptide Institute, Inc.) adjusted to 0.8 mM with tris hydrochloride (pH 8.4) was added thereto. The absorbance was determined and then the initial reaction rate was determined. A control was prepared in the same manner as that described above except that the solution of the compound to be tested was replaced with 10 μl of tris hydrochloride buffer adjusted to pH 8.4. The absorbance was determined with MICROPLATE READER Model 3550-UV (a product of BIO RAD) at a wave length of 405 nm at intervals of 15 seconds for 16 minutes.

A further test has as its target T2, human thrombin (Homo sapiens, UniProt P00734).
T2 construct: solution of human thrombin (a product of SIGMA Co.); purchased SIGMA Co
Put plainly: Determination of thrombin-inhibiting activity (chromogenic substrate S-2238, initial rate). It is filed as biochemical. Particulars: tris hydrochloride buffer pH 8.4, room temperature, absorbance 405 nm; for IC50: read-out: Thrombin-inhibiting activity (pIC50) (converted). How it is done: Determination of Thrombin-inhibiting Activity
130 μl of 100 mM tris hydrochloride buffer adjusted to pH 8.4 was added to 10 μl of an aqueous solution of a test compound. Then 10 μl of a solution of human thrombin (a product of SIGMA Co.) adjusted to 2 units/ml with tris hydrochloride buffer of pH 8.4 was added to the resultant mixture. After the incubation at room temperature for 10 minutes, 50 μl of a solution of D-phenylalanyl-L-pipecolyl-L-arginyl-P-nitroanilide dihydrochloride (S-2238; a product of Daiichi Kagaku Yakuhin Co.) adjusted to 0.4 mM with tris hydrochloride buffer of pH 8.4 was added thereto. The absorbance was determined and then the initial reaction rate was determined. A control was prepared in the same manner as that described above except that the solution of the compound to be tested was replaced with 10 μl of tris hydrochloride buffer adjusted to pH 8.4. The absorbance was determined with MICROPLATE READER Model 3550-UV (a product of […]) at a wave length of 405 nm at intervals of 15 seconds for 16 minutes.

T1 sequence (P00742 235-488 limits assumed): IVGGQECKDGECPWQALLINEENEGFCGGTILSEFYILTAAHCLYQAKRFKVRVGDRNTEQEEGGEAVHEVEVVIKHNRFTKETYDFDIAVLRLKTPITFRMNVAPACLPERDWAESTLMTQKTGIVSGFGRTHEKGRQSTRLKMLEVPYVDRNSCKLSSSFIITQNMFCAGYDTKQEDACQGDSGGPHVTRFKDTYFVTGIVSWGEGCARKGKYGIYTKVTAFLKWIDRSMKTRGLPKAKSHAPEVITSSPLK
T1 sequence (P00742 41-179 partner limits assumed): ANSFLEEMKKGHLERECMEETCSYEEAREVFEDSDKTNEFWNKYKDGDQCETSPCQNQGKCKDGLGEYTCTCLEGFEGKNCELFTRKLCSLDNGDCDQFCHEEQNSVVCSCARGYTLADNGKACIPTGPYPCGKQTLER

As to “3-[4-amidino-2-(2-((1-(1-methylpyridinium-4-yl)piperidine-4-carbonyl)amino)ethoxy)phenyl]-2-oxopropionic acid bistrifluoroacetate [Compd. of Ex. 52]”, the “Activity of inhibiting activated blood coagulation factor X (pIC50)” value in test [1] is given as 7.1. Also, the “Thrombin-inhibiting activity (pIC50)” value at human thrombin is on record as 4.2.
On to “3-[4-amidino-(2R)-2-((1-(pyridine-4-yl)piperidine-4-carbonyl)pyrrolidine-2-ylmethoxy)phenyl]propionic acid bistrifluoroacetate [Compd. of Ex. 26]”, for which, in test [1], the “Activity of inhibiting activated blood coagulation factor X (pIC50)” value is 7.8. Besides, the “Thrombin-inhibiting activity (pIC50)” value at human thrombin was under 4.0.
Take `CC(=N)N1CCC(Oc2ccc(C(=O)NCCOc3cc(C(=N)N)ccc3C=CC(=O)O)cc2)CC1.O=C(O)C(F)(F)F.O=C(O)C(F)(F)F` [Compd. of Ex. 2, 3-[4-amidino-2-(2-(4-(1-(1-acetimidoyl)-4-piperidyloxy)benzoylamino)ethoxy)phenyl]acrylic acid bistrifluoroacetate]: at human thrombin, the “Thrombin-inhibiting activity (pIC50)” value is under 3.0.
In the case of `CC(=N)N1CCC(Oc2ccc(C(=O)NCCOc3cc(C(=N)N)ccc3CCC(=O)O)cc2)CC1.O=C(O)C(F)(F)F.O=C(O)C(F)(F)F` [Compd. of Ex. 4, 3-[4-amidino-2-(2-(4-(1-(1-acetimidoyl)-4-piperidyloxy)benzoylamino)ethoxy)phenyl]propionic acid bistrifluoroacetate], in test [1], the “Activity of inhibiting activated blood coagulation factor X (pIC50)” value worked out at 7.5. Further, the “Thrombin-inhibiting activity (pIC50)” value at human thrombin is under 3.0.
For the compound `CCOC(=O)CCc1ccc(C(=N)N)cc1OCCNC(=O)C1CCN(c2ccncc2)CC1` [Compd. of Ex. 5, ethyl 3-[4-amidino-2-(2-((1-(pyridine-4-yl)piperidine-4-carbonyl)amino)ethoxy)phenyl]propionate bistrifluoroacetate], the IC50 in test [1] is 63.1 nM; at human thrombin, 6310 nM.
For `N=C(N)c1ccc(CCC(=O)O)c(OCCNC(=O)C2CCN(c3ccncc3)CC2)c1.O=C(O)C(F)(F)F.O=C(O)C(F)(F)F` [Compd. of Ex. 6], in test [1], the “Activity of inhibiting activated blood coagulation factor X (pIC50)” value was found to be 7.4. Also, the “Thrombin-inhibiting activity (pIC50)” value at human thrombin was under 3.0.
Turning to `CC(=N)N1CCC(Oc2ccc(C(=O)N[C@@H](COc3cc(C(=N)N)ccc3CCC(=O)O)CC(=O)O)cc2)CC1.O=C(O)C(F)(F)F.O=C(O)C(F)(F)F` [Compd. of Ex. 10, (3R)-4-[5-amidino-2-(2-carboxyethyl)phenoxy]-3-[4-(1-(1-acetimidoyl)-4-piperidyloxy)benzoylamino]butanoic acid bistrifluoroacetate], the “Activity of inhibiting activated blood coagulation factor X (pIC50)” value in test [1] was found to be 7.4. Moreover, the “Thrombin-inhibiting activity (pIC50)” value on human thrombin is reported as under 3.0.
In the case of `N=C(N)c1ccc(CCC(=O)O)c(OC[C@@H](CC(=O)O)NC(=O)C2CCN(c3ccncc3)CC2)c1` [Compd. of Ex. 13, (3R)-4-[5-amidino-2-(2-carboxyethyl)phenoxy]-3-[(1-(pyridine-4-yl)piperidine-4-carbonyl)amino]butanoic acid bistrifluoroacetate], the IC50 is 25.1 nM in test [1] and over 794000 nM at human thrombin.
For the compound `CC(=N)N1CCC(Oc2ccc(C(=O)NCCOc3cc(C(=N)N)ccc3O)cc2)CC1` [Compd. of Ex. 14, N-[2-(5-amidino-2-hydroxyphenoxy)ethyl]-4-(1-acetimidoyl-4-piperidyloxy)benzamide bistrifluoroacetate], the figures for the IC50 (in test [1]; on human thrombin) were 15.8 nM and over 100000 nM, respectively.
Regarding `CC(=N)N1CCC(Oc2ccc(C(=O)N[C@@H](COc3cc(C(=N)N)ccc3O)CC(=O)O)cc2)CC1` [Compd. of Ex. 28, (3R)-4-(5-amidino-2-hydroxyphenoxy)-3-[4-(1-acetimidoyl-4-piperidyloxy)benzoylamino]butanoic acid bistrifluoroacetate], the results for the IC50 (in test [1]; on human thrombin) were 15.8 nM and over 100000 nM, respectively.
In the case of `N=C(N)c1ccc(O)c(OC[C@@H](CC(=O)O)NC(=O)C2CCN(c3ccncc3)CC2)c1` [Compd. of Ex. 29, (3R)-4-(5-amidino-2-hydroxyphenoxy)-3-[(1-(pyridine-4-yl)piperidine-4-carbonyl)amino]butanoic acid bistrifluoroacetate], the results for the IC50 (in test [1]; on human thrombin) were 12.6 nM and over 100000 nM, respectively.
Consider `N=C(N)c1ccc(CO)c(OCCNC(=O)C2CCN(c3ccncc3)CC2)c1.O=C(O)C(F)(F)F.O=C(O)C(F)(F)F` [Compd. of Ex. 37, N-[2-(5-amidino-2-hydroxymethylphenoxy)ethyl]-1-(1-(1-pyridine-4-yl)piperidine)carboxamide bistrifluoroacetate], for which the “Activity of inhibiting activated blood coagulation factor X (pIC50)” value in test [1] is on record as 7.3. On human thrombin, the “Thrombin-inhibiting activity (pIC50)” value is on record as under 4.0.
As for `COC(=O)c1ccc(C(=N)N)cc1OCCNC(=O)c1ccc(OC2CCN(C(C)=N)CC2)cc1.O=C(O)C(F)(F)F.O=C(O)C(F)(F)F` [Compd. of Ex. 38, methyl 4-amidino-2-[2-(4-[1-(1-acetimidoyl)-4-piperidyloxy]benzoylamino)ethoxy]benzoate bistrifluoroacetate], on human thrombin, the “Thrombin-inhibiting activity (pIC50)” value was determined as 3.3.
Take `N=C(N)c1ccc(CCCO)c(OCCNC(=O)C2CCN(c3ccncc3)CC2)c1.O=C(O)C(F)(F)F.O=C(O)C(F)(F)F` [Compd. of Ex. 43, N-[2-(5-amidino-2-hydroxypropylphenoxy)ethyl]-1-(1-(1-pyridine-4-yl)piperidine)carboxamide bistrifluoroacetate]: the “Activity of inhibiting activated blood coagulation factor X (pIC50)” value in test [1] is listed as 7.8. In addition, the “Thrombin-inhibiting activity (pIC50)” value at human thrombin is under 4.0.
The corresponding values for `CN1CCN=C1c1ccc(C(=O)NCCOc2cc(C(=N)N)ccc2CC(=O)C(=O)O)cc1.O=C(O)C(F)(F)F.O=C(O)C(F)(F)F` [Compd. of Ex. 51] are 8.1 and 4.3.
“(3R)-3-[4-amidino-2-(3-ethoxycarbonyl-2-(4-(1-(1-acetimidoyl)-4-piperidyloxy)benzoylamino)propoxy)phenyl]acrylic acid bistrifluoroacetate [Compd. of Ex. 8]”: at human thrombin, the “Thrombin-inhibiting activity (pIC50)” value is given as under 3.0.
Take “N-[2-(5-amidino-2-hydroxyphenoxy)ethyl]-1-(4-pyridyl)-4-piperidine-4-carboxamide bistrifluoroacetate [Compd. of Ex. 15]”: the “Activity of inhibiting activated blood coagulation factor X (pIC50)” value in test [1] is on record as 8. In addition, the “Thrombin-inhibiting activity (pIC50)” value on human thrombin is recorded as under 4.0.
Consider “ethyl (3R)-4-[5-amidino-2-(2-ethoxycarbonylethyl)phenoxy]-3-[4-(1-(1-acetimidoyl)-4-piperidyloxy)benzoylamino]butanoate bistrifluoroacetate [Compd. of Ex. 9]”, for which, on human thrombin, the “Thrombin-inhibiting activity (pIC50)” value came out at 5.5.
